{"source": "patent US8268814B2", "about": "“Substituted sulfonamide compounds” (Gruenenthal GmbH, priority 2008, dated 2012)", "data": [{"target": "T1, B1R receptor of the rat (rB1R) (Rattus norvegicus, UniProt P97583)", "T1 construct": "expressed in transfected cells; host or cells: CHO K1 cells (Chinese hamster ovary), stably transfected", "T1 sequence (P97583 1-337)": "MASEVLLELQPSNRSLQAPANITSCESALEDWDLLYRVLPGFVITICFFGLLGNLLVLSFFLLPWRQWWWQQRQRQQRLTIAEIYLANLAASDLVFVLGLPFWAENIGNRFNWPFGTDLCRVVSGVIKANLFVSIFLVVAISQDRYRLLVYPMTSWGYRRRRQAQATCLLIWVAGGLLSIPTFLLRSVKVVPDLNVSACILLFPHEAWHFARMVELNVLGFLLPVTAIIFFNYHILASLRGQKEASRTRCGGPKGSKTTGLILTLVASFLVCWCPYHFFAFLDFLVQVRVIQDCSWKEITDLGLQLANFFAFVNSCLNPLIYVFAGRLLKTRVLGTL", "experiment": "Functional FLIPR Ca2+ assay on the bradykinin 1 receptor, rat (rB1R CHO K1 cells)", "type": "cell-based", "settings": "test substance 10 μM; CHO K1 cells transfected with rat B1R gene; agonist Des-Arg9-bradykinin at EC80; % inhibition compared with maximum achievable inhibition; read-out: B1R antagonism, rat [10 μM] % inhibition", "description": "(§1) The agonistic or antagonistic action of substances can be quantified on the bradykinin 1 receptor (B1R) of the human and rat species with ectopically expressing cell lines (CHO K1 cells) and with the aid of a Ca^2+-sensitive dyestuff (Fluo-4) in a fluorescent imaging plate reader (FLIPR). The figure in % activation is based on the Ca^2+ signal after addition of Lys-Des-Arg^9-bradykinin (0.5 nM) or Des-Arg^9-bradykinin (100 nM). Antagonists lead to a suppression of the Ca^2+ inflow after addition of the agonist. % inhibition compared with the maximum achievable inhibition is stated.\n(§2) The agonistic or antagonistic action of substances can be determined on the bradykinin 1 receptor (B1R) of the human and rat species with the following assay. In accordance with this assay, the Ca^2+ inflow through the channel is quantified with the aid of a Ca^2+-sensitive dyestuff (type Fluo-4, Molecular Probes Europe BV, Leiden, Holland) in a fluorescent imaging plate reader (FLIPR, Molecular Devices, Sunnyvale, USA).\n(§3) Chinese hamster ovary cells (CHO K1 cells) transfected stably with the human B1R gene (hB1R cells) or the B1R gene of the rat (rB1R cells) are used. For functional studies, these cells are plated out on black 96-well plates with a clear base (BD Biosciences, Heidelberg, Germany or Greiner, Frickenhausen, Germany) in a density of 20,000-35,000 cells/well. The cells are left overnight at 37° C. and 5% CO2 in culture medium (hB1R cells: Nutrient Mixture Ham's F12, Gibco Invitrogen GmbH, Karlsruhe, Germany or DMEM, Sigma-Aldrich, Taufkirchen, Germany; rB1R cells: D-MEM/F12, Gibco Invitrogen GmbH, Karlsruhe, Germany) with 10 vol. % FBS (foetal bovine serum, Gibco Invitrogen GmbH, Karlsruhe, Germany or PAN Biotech GmbH, Aidenbach, Germany). On the following day, the cells are loaded for 60 min at 37° C. with 2.13 μM Fluo-4 (Molecular Probes Europe BV, Leiden, Holland) in HBSS buffer (Hank's buffered saline solution, Gibco Invitrogen GmbH, Karlsruhe, Germany) with 2.5 mM probenecid (Sigma-Aldrich, Taufkirchen, Germany) and 10 mM HEPES (Sigma-Aldrich, Taufkirchen, Germany). The plates are then washed 2× with HBSS buffer, and HBSS buffer which additionally contains 0.1% BSA (bovine serum albumin; Sigma-Aldrich, Taufkirchen, Germany), 5.6 mM glucose and 0.05% gelatine (Merck KgaA, Darmstadt, Germany) is added. After a further incubation of 20 minutes at room temperature, the plates are inserted into the FLIPR for the Ca^2+ measurement.\n(§4) Alternatively, the plates are washed with buffer A (15 mM HEPES, 80 mM NaCl, 5 mM KCl, 1.2 mM CaCl2, 0.7 mM MgSO4, 2 g/l glucose, 2.5 mM probenecid), buffer A is added and the plates are loaded with 2.5 μM Fluo-4 and 0.025% Pluronic F127 (Sigma-Aldrich, Taufkirchen, Germany). Thereafter, the cells are washed 2× with buffer A and incubated for 30 minutes with buffer A, which additionally contains 0.05% BSA and 0.05% gelatine, at room temperature and thereafter inserted into the FLIPR for the Ca^2+ measurement. The Ca^2+-dependent fluorescence is measured here before and after addition of substances (λex=488 nm, λem=540 nm). Quantification is by measurement of the highest fluorescence intensity (FC, fluorescence counts) over time.\n(§5) The FLIPR protocol consists of 2 additions of substance. Test substances (10 μM) are first pipetted on to the cells and the Ca^2+ inflow is compared with the control (hB1R: Lys-Des-Arg^9-bradykinin >=50 nM; rB1R: Des-Arg^9-bradykinin 10 μM). This gives the figure in % activation based on the Ca^2+ signal after addition of Lys-Des-Arg^9-bradykinin (>=50 nM) or Des-Arg^9-bradykinin (10 μM). After incubation for 10-20 minutes, Lys-Des-Arg^9-bradykinin (hB1R) or Des-Arg^9-bradykinin (rB1R) in the concentration of the EC80 is applied and the inflow of Ca^2+ is likewise determined. Antagonists lead to a suppression of the Ca^2+ inflow. % inhibition compared with the maximum achievable inhibition is calculated. In order to determine the IC50 value, the substances are added in various concentrations. […]", "units": {"inhibition at 10 µM": "%"}, "values": [{"smiles": "COc1cc(C)c(S(=O)(=O)N2CCCC[C@H]2COCC(=O)N2CCc3nc(CN4CCCCC4)sc3C2)c(C)c1", "note": "[Example 58, 2-[[(2S)-1-[(4-Methoxy-2,6-dimethyl-phenyl)sulfonyl]-piperidin-2-yl]-methoxy]-1-[2-(piperidin-1-yl-methyl)-4,5,6,7-tetrahydro-thiazolo[5,4-c]pyridin-5-yl]-ethanone]", "inhibition at 10 µM": 103}, {"smiles": "COc1cc(C)c(S(=O)(=O)N2CCCCC2COCC(=O)N2CCc3onc(CN4CCCCC4)c3C2)c(C)c1", "note": "(centres unmarked) [Example 09, 2-((1-(4-methoxy-2,6-dimethylphenylsulfonyl)piperidin-2-yl)methoxy)-1-(3-(piperidin-1-ylmethyl)-6,7-dihydroisoxazolo[4,5-c]pyridin-5(4H)-yl)ethanone]", "inhibition at 10 µM": 105}, {"smiles": "Cc1cccc(Cl)c1S(=O)(=O)N1CCCCC1CCCC(=O)N1CCc2sc(CN3CCN(C)CC3)cc2C1", "note": "(centres unmarked) [Example 68, 4-[1-[(2-Chloro-6-methyl-phenyl)sulfonyl]-piperidin-2-yl]-1-[2-[(4-methyl-piperazin-1-yl)-methyl]-4,5,6,7-tetrahydro-thieno[3,2-c]pyridin-5-yl]-butan-1-one]", "inhibition at 10 µM": 103}, {"smiles": "COc1cc(C)c(S(=O)(=O)N(CCOCC(=O)N2CCc3sc(CN4CCN(C)CC4)cc3C2)c2ccccc2)c(C)c1", "note": "[Example 83, 4-Methoxy-2,6-Dimethyl-N-[2-[2-[2-[(4-methyl-piperazin-1-yl)-methyl]-4,5,6,7-tetrahydro-thieno[3,2-c]pyridin-5-yl]-2-oxo-ethoxy]-ethyl]-N-phenyl-benzenesulfonic acid amide]", "inhibition at 10 µM": 101}, {"smiles": "COc1cc(C)c(S(=O)(=O)N(CCOCC(=O)N2CCc3sc(CN4CCN(C)CC4)cc3C2)Cc2ccccc2)c(C)c1", "note": "[Example 81, N-Benzyl-4-Methoxy-2,6-dimethyl-N-[2-[2-[2-[(4-methyl-piperazin-1-yl)-methyl]-4,5,6,7-tetrahydro-thieno[3,2-c]pyridin-5-yl]-2-oxo-ethoxy]-ethyl]-benzenesulfonic acid amide]", "inhibition at 10 µM": 102}, {"smiles": "O=C(CCCC1CCCCN1S(=O)(=O)c1cccc2ccccc12)N1CCc2[nH]cnc2C1c1ccccc1", "note": "(centres unmarked) [Example 74, 4-[1-(Naphthalen-1-ylsulfonyl)-piperidin-2-yl]-1-(4-phenyl-4,5,6,7-tetrahydro-1H-imidazo[4,5-c]pyridin-5-yl)-butan-1-one]", "inhibition at 10 µM": 95}, {"smiles": "CN1CCN(Cc2cc3c(s2)CCN(C(=O)CCCC2CCCCN2S(=O)(=O)c2ccc4ccccc4c2)C3)CC1", "note": "(centres unmarked) [Example 75, 1-[2-[(4-Methyl-piperazin-1-yl)-methyl]-4,5,6,7-tetrahydro-thieno[3,2-c]pyridin-5-yl]-4-[1-(naphthalen-2-ylsulfonyl)-piperidin-2-yl]-butan-1-one]", "inhibition at 10 µM": 103}, {"smiles": "COc1cc(C)c(S(=O)(=O)N(C)CCOCC(=O)N2CCc3sc(CN4CCN(C)CC4)cc3C2)c(C)c1C", "note": "[Example 95, 4-Methoxy-N,2,3,6-tetramethyl-N-[2-[2-[2-[(4-methyl-piperazin-1-yl)-methyl]-4,5,6,7-tetrahydro-thieno[3,2-c]pyridin-5-yl]-2-oxo-ethoxy]-ethyl]-benzenesulfonic acid amide]", "inhibition at 10 µM": 99}, {"smiles": "O=C(CCCC1CCCCN1S(=O)(=O)c1ccccc1C(F)(F)F)N1CCc2[nH]cnc2C1c1ccccc1", "note": "(centres unmarked) [Example 88, 1-(4-Phenyl-4,5,6,7-tetrahydro-1H-imidazo[4,5-c]pyridin-5-yl)-4-[1-[[2-(trifluoromethyl)-phenyl]sulfonyl]-piperidin-2-yl]-butan-1-one]", "inhibition at 10 µM": 65}, {"smiles": "COc1cc(C)c(S(=O)(=O)N2CCCCC2CCCC(=O)N2CCc3[nH]cnc3C2c2ccccc2)c(C)c1", "note": "(centres unmarked) [Example 71, 4-[1-[(4-Methoxy-2,6-dimethyl-phenyl)sulfonyl]-piperidin-2-yl]-1-(4-phenyl-4,5,6,7-tetrahydro-1H-imidazo[4,5-c]pyridin-5-yl)-butan-1-one]", "inhibition at 10 µM": 101}, {"smiles": "COc1cc(C)c(S(=O)(=O)N(C)CCOCC(=O)N2CCc3[nH]cnc3C2c2ccccc2)c(C)c1C", "note": "(centres unmarked) [Example 96, 4-Methoxy-N,2,3,6-tetramethyl-N-[2-[2-oxo-2-(4-phenyl-4,5,6,7-tetrahydro-1H-imidazo[4,5-c]pyridin-5-yl)-ethoxy]-ethyl]-benzenesulfonic acid amide]", "inhibition at 10 µM": 54}, {"smiles": "COc1cc(C)c(S(=O)(=O)N2c3ccccc3OCC2COCC(=O)N2CCc3[nH]cnc3C2c2ccccc2)c(C)c1", "note": "(centres unmarked) [Example 92, 2-[[4-[(4-Methoxy-2,6-dimethyl-phenyl)sulfonyl]-3,4-dihydro-2H-[1,4]benzoxazin-3-yl]-methoxy]-1-(4-phenyl-4,5,6,7-tetrahydro-1H-imidazo[4,5-c]pyridin-5-yl)-ethanone]", "inhibition at 10 µM": 94}, {"smiles": "COc1cc(C)c(S(=O)(=O)N2c3ccccc3CCC2COCC(=O)N2CCc3[nH]cnc3C2c2ccccc2)c(C)c1", "note": "(centres unmarked) [Example 86, 2-[[1-[(4-Methoxy-2,6-dimethyl-phenyl)sulfonyl]-1,2,3,4-tetrahydro-quinolin-2-yl]-methoxy]-1-(4-phenyl-4,5,6,7-tetrahydro-1H-imidazo[4,5-c]pyridin-5-yl)-ethanone]", "inhibition at 10 µM": 96}, {"smiles": "Cc1cccc(Cl)c1S(=O)(=O)N1CCCCC1CCCC(=O)N1CCc2[nH]cnc2C1c1ccccc1", "note": "(centres unmarked) [Example 69, 4-[1-[(2-Chloro-6-methyl-phenyl)sulfonyl]-piperidin-2-yl]-1-(4-phenyl-4,5,6,7-tetrahydro-1H-imidazo[4,5-c]pyridin-5-yl)-butan-1-one]", "inhibition at 10 µM": 64}]}, {"target": "T2, human B1R receptor (hB1R) (Homo sapiens, UniProt P46663)", "T2 construct": "expressed in transfected cells; host or cells: CHO K1 cells (Chinese hamster ovary), stably transfected", "T2 sequence (P46663 1-353)": "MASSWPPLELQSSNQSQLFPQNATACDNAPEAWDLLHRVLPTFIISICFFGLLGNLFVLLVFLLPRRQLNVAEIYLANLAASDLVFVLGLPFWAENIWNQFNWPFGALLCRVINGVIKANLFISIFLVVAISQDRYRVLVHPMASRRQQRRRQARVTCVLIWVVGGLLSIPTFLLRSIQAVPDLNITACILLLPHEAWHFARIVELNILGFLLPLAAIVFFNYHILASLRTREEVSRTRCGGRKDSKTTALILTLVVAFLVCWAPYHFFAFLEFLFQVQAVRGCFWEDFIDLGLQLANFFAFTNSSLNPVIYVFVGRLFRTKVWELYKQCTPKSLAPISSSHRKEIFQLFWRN", "experiment": "Functional FLIPR Ca2+ assay on the bradykinin 1 receptor, human (hB1R CHO K1 cells)", "type": "cell-based", "settings": "test substance 10 μM; CHO K1 cells transfected with human B1R gene; agonist Lys-Des-Arg9-bradykinin at EC80; % inhibition compared with maximum achievable inhibition; read-out: B1R antagonism, human (10 μM] % inhibition", "description": "as §1, §2, §3, §4, §5", "units": {"inhibition at 10 µM": "%"}, "values": [{"smiles": "COc1cc(C)c(S(=O)(=O)N2CCCC[C@H]2COCC(=O)N2CCc3nc(CN4CCCCC4)sc3C2)c(C)c1", "note": "[Example 58, 2-[[(2S)-1-[(4-Methoxy-2,6-dimethyl-phenyl)sulfonyl]-piperidin-2-yl]-methoxy]-1-[2-(piperidin-1-yl-methyl)-4,5,6,7-tetrahydro-thiazolo[5,4-c]pyridin-5-yl]-ethanone]", "inhibition at 10 µM": 100}, {"smiles": "COc1cc(C)c(S(=O)(=O)N2CCCCC2COCC(=O)N2CCc3onc(CN4CCCCC4)c3C2)c(C)c1", "note": "(centres unmarked) [Example 09, 2-((1-(4-methoxy-2,6-dimethylphenylsulfonyl)piperidin-2-yl)methoxy)-1-(3-(piperidin-1-ylmethyl)-6,7-dihydroisoxazolo[4,5-c]pyridin-5(4H)-yl)ethanone]", "inhibition at 10 µM": 100}, {"smiles": "COc1cc(C)c(S(=O)(=O)N2CCCC[C@H]2COCC(=O)N2CCc3sc(CN4CCCN(C)CC4)cc3C2)c(C)c1", "note": "[Example 64, 2-[[(2S)-1-[(4-methoxy-2,6-dimethyl-phenyl)sulfonyl]-piperidin-2-yl]-methoxy]-1-[2-[(4-methyl-[1,4]diazepan-1-yl)-methyl]-4,5,6,7-tetrahydro-thieno[3,2-c]pyridin-5-yl]-ethanone]", "inhibition at 10 µM": 100}]}]}
